Measurements taken from patent US5620958A, “Bradykinin antagonists” (Coretech, Inc., priority 1994, dated 1997).
Read-outs that look alike come from different tables or passages of the source. Peptide text beside a SMILES is read from it.

Tests used:
BK2 receptor [1] = molecular target: T1, BK2 receptor (Rattus norvegicus, UniProt P25023); experiment: cell-based
T1 sequence (P25023 1-396): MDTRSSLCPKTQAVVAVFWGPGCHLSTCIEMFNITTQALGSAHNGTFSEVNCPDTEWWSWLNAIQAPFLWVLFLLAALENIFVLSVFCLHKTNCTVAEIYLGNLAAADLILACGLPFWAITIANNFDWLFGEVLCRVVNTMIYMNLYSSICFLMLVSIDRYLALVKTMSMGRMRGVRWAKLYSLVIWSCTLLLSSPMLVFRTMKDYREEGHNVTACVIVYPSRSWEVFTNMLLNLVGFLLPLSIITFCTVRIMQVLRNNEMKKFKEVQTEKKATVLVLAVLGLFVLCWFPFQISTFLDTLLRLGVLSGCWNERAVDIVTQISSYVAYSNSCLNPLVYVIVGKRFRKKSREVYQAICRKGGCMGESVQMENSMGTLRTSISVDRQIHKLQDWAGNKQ

BK2 receptor [2] = molecular target: T2, BK2 receptor (Cavia porcellus, UniProt O70526); experiment: guinea-pig ileum (GPI) in vitro, antagonism of BK; format: cell-based; conditions: Table E
T2 construct: tested for activity on guinea pig ileum in vitro on the standard tissue bath/strain gauge system; from tissue; host or cells: guinea pig ileum
T2 sequence (O70526 1-372): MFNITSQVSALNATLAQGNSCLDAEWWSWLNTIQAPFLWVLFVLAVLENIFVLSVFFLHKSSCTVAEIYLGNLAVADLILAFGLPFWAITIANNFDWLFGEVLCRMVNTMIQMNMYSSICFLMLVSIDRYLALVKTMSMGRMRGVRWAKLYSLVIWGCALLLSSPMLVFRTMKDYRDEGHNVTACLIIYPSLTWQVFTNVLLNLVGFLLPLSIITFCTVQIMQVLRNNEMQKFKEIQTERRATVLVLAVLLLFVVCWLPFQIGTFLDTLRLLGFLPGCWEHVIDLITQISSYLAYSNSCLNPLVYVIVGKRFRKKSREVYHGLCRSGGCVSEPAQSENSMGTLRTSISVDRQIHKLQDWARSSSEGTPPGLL
Outline: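 Isolated guinea-pig ileum in tissue bath with strain-gauge recording; antagonism of bradykinin contractions. Potency expressed as pA2 (Schild method: negative log molar antagonist concentration causing two-fold agonist potency shift); percentage recovery also determined.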

BK1 receptor = molecular target: T3, BK1 receptor (Oryctolagus cuniculus, UniProt P48748); experiment: rabbit aorta in vitro, reversal of des-Arg^9 -BK contraction; format: cell-based; conditions: for IC50: Table L, negative log of molar concentration
T3 construct: when administered to an intact animal; from tissue; host or cells: whole rabbit (systemic arterial blood pressure), LPS-pretreated
T3 sequence (P48748 1-352): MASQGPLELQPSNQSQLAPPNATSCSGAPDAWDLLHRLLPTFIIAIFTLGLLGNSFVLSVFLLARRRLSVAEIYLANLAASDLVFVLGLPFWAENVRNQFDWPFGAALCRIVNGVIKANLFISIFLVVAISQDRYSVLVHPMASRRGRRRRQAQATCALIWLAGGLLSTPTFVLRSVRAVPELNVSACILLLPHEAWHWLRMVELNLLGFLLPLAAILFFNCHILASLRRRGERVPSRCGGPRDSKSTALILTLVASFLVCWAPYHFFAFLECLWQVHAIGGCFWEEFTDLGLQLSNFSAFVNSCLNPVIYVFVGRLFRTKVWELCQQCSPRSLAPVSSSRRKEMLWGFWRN

BK2 receptor [3] = molecular target: T1, BK2 receptor; conditions: for BK2 Rat Uterus pA2: Table L
NK2 receptor = molecular target: T4, NK2 receptor (Oryctolagus cuniculus, UniProt P79218); experiment: rabbit pulmonary artery, reduction of neurokinin A contraction; format: cell-based; conditions: Table R; negative log of molar concentration reducing sustained neurokinin A contraction by 50%; read-out: NK2 Rabbit Pulm Art log (converted)
T4 construct: reduce a sustained contractile response produced by neurokinin A by 50%; from tissue; host or cells: contractile tissue preparation (rabbit pulmonary artery per the earlier reading)
T4 sequence (P79218 1-384): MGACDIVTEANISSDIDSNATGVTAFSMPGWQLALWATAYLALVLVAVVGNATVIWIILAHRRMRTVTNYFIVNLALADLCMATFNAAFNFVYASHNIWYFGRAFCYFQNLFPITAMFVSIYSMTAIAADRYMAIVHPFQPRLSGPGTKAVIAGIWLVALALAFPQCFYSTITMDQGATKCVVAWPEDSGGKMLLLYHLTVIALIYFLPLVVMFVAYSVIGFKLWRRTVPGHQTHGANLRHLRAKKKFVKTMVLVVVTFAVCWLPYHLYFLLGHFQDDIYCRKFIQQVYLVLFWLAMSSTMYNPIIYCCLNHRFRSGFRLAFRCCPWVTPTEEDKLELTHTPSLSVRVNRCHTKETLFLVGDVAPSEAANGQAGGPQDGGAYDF
Method: The heterodimers thus obtained were tested for activity as heretofore described, the results being shown in Table R. In this Table -log [M] represents the negative log of the molar concentration of the antagonist necessary to reduce a sustained contractile response produced by neurokinin A by 50%.

SMILES	BK1 antagonism (BK1 receptor)	IC50 (BK1 receptor)	activity in the rat uterus BK2 receptor system (BK2 receptor [3])	BK2 Rat Uterus pA2 (BK2 receptor [3])	IC50 (NK2 receptor)	Kb (BK2 receptor [1])	other results
CC(C)C[C@H](NC(=O)[C@@H](Cc1ccccc1)NC(=O)[C@H](CSC1CC(=O)N(CCCCCCN2C(=O)CC(SC[C@H](NC(=O)[C@H](Cc3ccccc3)NC(=O)CNC(=O)[C@@H]3C[C@@H](O)CN3C(=O)[C@@H]3CCCN3C(=O)[C@H](CCCNC(=N)N)NC(=O)[C@H](N)CCCNC(=N)N)C(=O)N[C@H](Cc3ccccc3)C(=O)N[C@@H](CC(C)C)C(=O)N[C@@H](CCCNC(=N)N)C(=O)O)C2=O)C1=O)NC(=O)[C@H](Cc1ccccc1)NC(=O)CNC(=O)[C@@H]1C[C@@H](O)CN1C(=O)[C@@H]1CCCN1C(=O)[C@H](CCCNC(=N)N)NC(=O)[C@H](N)CCCNC(=N)N)C(=O)N[C@@H](CCCNC(=N)N)C(=O)O (stereo partly shown) [CP-0127] (HELM PEPTIDE1{[dR].R.P.[Hyp].G.F.C.[dF].L.R}|PEPTIDE2{[dR].R.P.[Hyp].G.F.C.[dF].L.R}|CHEM1{[O=C1CC([*:1])C(=O)N1CCCCCCN1C(=O)CC([*:2])C1=O]}$PEPTIDE1,CHEM1,7:R3-1:R1|PEPTIDE2,CHEM1,7:R3-1:R2$$$V2.0)	–	–	–	–	–	–	Kb (BK2 receptor [1]; BK2 RAT UTERUS pA2, Table G): 3.16 nM; Kb (BK2 receptor [1]; pA2 (UTERUS), Table D, effect of linker length): 1.58 nM; GPI pA2 (BK2 receptor [2]): 7.7 ± 0.2; BK1 RABBIT AORTA IC50 (BK1 receptor; Table G, negative log of molar concentration causing 50% reversal of 10^-7 M des-Arg^9 -BK contraction): Inactive; pA2 DIMER (BK2 receptor [3]; Table C, rat uterus, P.A. = partial antagonist): 8.8 ± 0.3
CC(C)C[C@H](NC(=O)[C@@H]1CCCN1C(=O)[C@H](CO)NC(=O)[C@H](Cc1ccccc1)NC(=O)CNC(=O)[C@@H]1C[C@@H](O)CN1C(=O)[C@@H]1CCCN1C(=O)[C@H](CSC1CC(=O)N(CCCCCCN2C(=O)CC(SC[C@H](NC(=O)[C@H](Cc3ccccc3)NC(=O)CNC(=O)[C@@H]3C[C@@H](O)CN3C(=O)[C@@H]3CCCN3C(=O)[C@H](CCCNC(=N)N)NC(=O)[C@H](N)CCCNC(=N)N)C(=O)N[C@H](Cc3ccccc3)C(=O)N[C@@H](CC(C)C)C(=O)N[C@@H](CCCNC(=N)N)C(=O)O)C2=O)C1=O)NC(=O)[C@@H](N)CCCCN)C(=O)O (stereo partly shown) [CP-0382] (HELM PEPTIDE1{[dR].R.P.[Hyp].G.F.C.[dF].L.R}|PEPTIDE2{K.C.P.[Hyp].G.F.S.P.L}|CHEM1{[O=C1CC([*:1])C(=O)N1CCCCCCN1C(=O)CC([*:2])C1=O]}$PEPTIDE1,CHEM1,7:R3-1:R1|PEPTIDE2,CHEM1,2:R3-1:R2$$$V2.0; N-terminus and C-terminus assumed)	BK1 antagonism was retained	631 nM	substantial partial agonism	Agonist	–	–	–
CC(C)C[C@H](NC(=O)[C@@H]1CCCN1C(=O)[C@H](CO)NC(=O)[C@H](Cc1cccs1)NC(=O)CNC(=O)[C@@H]1CCCN1C(=O)[C@@H]1CCCN1C(=O)[C@H](CSC1CC(=O)N(CCCCCCN2C(=O)CC(SC[C@H](NC(=O)[C@H](Cc3ccccc3)NC(=O)CNC(=O)[C@@H]3C[C@@H](O)CN3C(=O)[C@@H]3CCCN3C(=O)[C@H](CCCNC(=N)N)NC(=O)[C@H](N)CCCNC(=N)N)C(=O)N[C@H](Cc3ccccc3)C(=O)N[C@@H](CC(C)C)C(=O)N[C@@H](CCCNC(=N)N)C(=O)O)C2=O)C1=O)NC(=O)[C@@H](N)CCCCN)C(=O)O (stereo partly shown) [CP-0383] (HELM PEPTIDE1{[dR].R.P.[Hyp].G.F.C.[dF].L.R}|PEPTIDE2{K.C.P.P.G.[O=C([C@H](Cc1cccs1)N[*:1])[*:2]].S.P.L}|CHEM1{[O=C1CC([*:1])C(=O)N1CCCCCCN1C(=O)CC([*:2])C1=O]}$PEPTIDE1,CHEM1,7:R3-1:R1|PEPTIDE2,CHEM1,2:R3-1:R2$$$V2.0)	BK1 antagonism was retained	15.8 nM	substantial partial agonism	Agonist	–	–	–
CC(C)C[C@H](NC(=O)[C@@H](Cc1ccccc1)NC(=O)[C@H](CSC1CC(=O)N(CCCCCCN2C(=O)CC(SC[C@H](N)C(=O)N[C@@H](Cc3ccc(O)cc3)C(=O)N[C@H](Cc3c[nH]c4ccccc34)C(=O)N[C@H](C(=O)N[C@H](Cc3c[nH]c4ccccc34)C(=O)N[C@H](Cc3c[nH]c4ccccc34)C(=O)N[C@@H](CCCNC(=N)N)C(N)=O)C(C)C)C2=O)C1=O)NC(=O)[C@H](Cc1ccccc1)NC(=O)CNC(=O)[C@@H]1C[C@@H](O)CN1C(=O)[C@@H]1CCCN1C(=O)[C@H](CCCNC(=N)N)NC(=O)[C@H](N)CCCNC(=N)N)C(=O)N[C@@H](CCCNC(=N)N)C(=O)O (stereo partly shown) [CP-0411] (HELM PEPTIDE1{[dR].R.P.[Hyp].G.F.C.[dF].L.R}|PEPTIDE2{C.Y.[dW].V.[dW].[dW].R.[am]}|CHEM1{[O=C1CC([*:1])C(=O)N1CCCCCCN1C(=O)CC([*:2])C1=O]}$PEPTIDE1,CHEM1,7:R3-1:R1|PEPTIDE2,CHEM1,1:R3-1:R2$$$V2.0; N-terminus assumed)	–	–	–	–	3.16 µM	31.6 nM	–
CC(C)C[C@H](NC(=O)[C@@H](Cc1ccccc1)NC(=O)[C@H](CSC1CC(=O)N(CCCCCCN2C(=O)CC(SC[C@H](NC(=O)[C@@H](Cc3c[nH]c4ccccc34)NC(=O)[C@H](Cc3ccc(O)cc3)NC(=O)[C@@H](N)CC(=O)O)C(=O)N[C@H](Cc3c[nH]c4ccccc34)C(=O)N[C@H](Cc3c[nH]c4ccccc34)C(=O)N[C@@H](CCCNC(=N)N)C(N)=O)C2=O)C1=O)NC(=O)[C@H](Cc1ccccc1)NC(=O)CNC(=O)[C@@H]1C[C@@H](O)CN1C(=O)[C@@H]1CCCN1C(=O)[C@H](CCCNC(=N)N)NC(=O)[C@H](N)CCCNC(=N)N)C(=O)N[C@@H](CCCNC(=N)N)C(=O)O (stereo partly shown) [CP-0414] (HELM PEPTIDE1{[dR].R.P.[Hyp].G.F.C.[dF].L.R}|PEPTIDE2{D.Y.[dW].C.[dW].[dW].R.[am]}|CHEM1{[O=C1CC([*:1])C(=O)N1CCCCCCN1C(=O)CC([*:2])C1=O]}$PEPTIDE1,CHEM1,7:R3-1:R1|PEPTIDE2,CHEM1,4:R3-1:R2$$$V2.0; N-terminus assumed)	–	–	–	–	6.31 µM	15.8 nM	–
CC(C)C[C@H](NC(=O)[C@@H](Cc1ccccc1)NC(=O)[C@H](CSC1CC(=O)N(CCCCCCN2C(=O)CC(SC[C@H](NC(=O)[C@@H](NC(=O)[C@@H](Cc3c[nH]c4ccccc34)NC(=O)[C@H](Cc3ccc(O)cc3)NC(=O)[C@@H](N)CC(=O)O)C(C)C)C(=O)N[C@H](Cc3c[nH]c4ccccc34)C(=O)N[C@@H](CCCNC(=N)N)C(N)=O)C2=O)C1=O)NC(=O)[C@H](Cc1ccccc1)NC(=O)CNC(=O)[C@@H]1C[C@@H](O)CN1C(=O)[C@@H]1CCCN1C(=O)[C@H](CCCNC(=N)N)NC(=O)[C@H](N)CCCNC(=N)N)C(=O)N[C@@H](CCCNC(=N)N)C(=O)O (stereo partly shown) [CP-0415] (HELM PEPTIDE1{[dR].R.P.[Hyp].G.F.C.[dF].L.R}|PEPTIDE2{D.Y.[dW].V.C.[dW].R.[am]}|CHEM1{[O=C1CC([*:1])C(=O)N1CCCCCCN1C(=O)CC([*:2])C1=O]}$PEPTIDE1,CHEM1,7:R3-1:R1|PEPTIDE2,CHEM1,5:R3-1:R2$$$V2.0; N-terminus assumed)	–	–	–	–	6.31 µM	15.8 nM	–
